Patent publication US12522593B2, “Azacycloalkyl carbonyl cyclic amine compound” (Alivexis, Inc., priority 2022, dated 2026)

What was measured:
human recombinant CTSC = human recombinant CTSC (Homo sapiens (Human), UniProt P53634); experiment: CTSC inhibition assay (in vitro), fluorescent substrate GF-AFC; format: biochemical; details: 30 μmol/L GF-AFC, pH 5.0, 25° C.
Experimental: 1. CTSC Inhibition Assay (In Vitro)
A test specimen was evaluated by a CTSC inhibition assay using a fluorescent substrate GF-AFC (Gly-Phe-7-Amino-4-trifluoromethylcoumarin, MP Biomedical, 03AFC03325). Since the GF-AFC is converted by CTSC to aminotrifluoromethylcoumarin having a specific fluorescence wavelength and the produced amount is proportional to CTSC activity, quantitative analysis was performed by measuring a fluorescence intensity with a plate reader. CTSC inhibition assay for each compound was performed using a polystyrene-made non-adhesive surface-treated black 384 well plate under the following conditions.
A human recombinant CTSC (R&D systems, 1071-CY) was dissolved in a CTSC active cocktail (20 ng/mL of human recombinant cathepsin L (R&D systems, 952-CY, 25 mmol/L MES/NaOH (pH: 6.0), 5 mmol/L dithiothreitol (DTT)) so as to be 100 ng/mL and incubated at 18° C. for 30 minutes. The solution was diluted with a CTSC assay buffer (50 mmol/L MES/NaOH (pH: 5.0), 50 mmol/L NaCl, 0.001% Triton X-100, mmol/L DTT) so as to be 2 ng/mL in a case of performing CTSC inhibition assay.
The test specimen was dissolved in dimethylsulfoxide (DMSO) at 10 mmol/L to prepare a stock solution. In a case where a solution in which the stock solution was diluted 15-fold with DMSO was used as the maximum evaluation concentration (0.667 mmol/L), 5-fold dilution was repeated in DMSO from the solution to prepare a serially diluted solution. 248.8 μL of the CTSC assay buffer was added to 1.12 μL of the serially diluted sample prepared in the DMSO to prepare a solution of a CTSC inhibition assay compound.
The final composition of the CTSC inhibition assay mixture was 0.66 ng/mL activated CTSC, 50 mmol/L MES/NaOH (pH: 5.0), 50 mmol/L NaCl, 0.001% Triton X-100, 5 mmol/L DTT, 30 μmol/L GF-AFC, and 0.15% DMSO, and the procedure was as follows. That is, 4 μL of the compound solution and 4 μL of the 2 ng/mL activated CTSC solution were mixed with each other in a 384 well plate and incubated at 25° C. for 30 minutes. Thereafter, 4 μL of the GF-AFC solution dissolved in the CTSC assay buffer was added to the mixture so as to be 90 μmol/L. After mixing to be uniform, a fluorescence emission intensity at 505 nm in a case of being excited at 390 nm after incubating at 25° C. for 1 hour was measured with a plate reader. A 4-parameter regression analysis was performed with GraphPad Prism (manufactured by GraphPad Software) from a plot of the fluorescence intensity at 505 nm and the sample concentration, and an IC50 value was calculated.
Results of test compounds of Formula (I) are shown in Table 1 as IC50 (nM) values for which 50% inhibition concentration is calculated based on CTSC inhibition (%). In the table, Ex indicates an example number.

CTSC in U937 cells = CTSC in U937 cells (Homo sapiens (Human), UniProt P53634); experiment: Intracellular CTSC inhibition assay (in vitro), LLOMe-induced cell death in U937 cells; format: cell-based; details: 3 hours culture, CellTiter-Glo
Experimental: 2. Intracellular CTSC Inhibition Assay (In Vitro)
A test specimen was evaluated by a degree of cell death in a case where a substrate LLOMe (L-Leucyl-L-Leucine methyl ester, hydrobromide salt, Sigma, 555045152) was added to U937 cells. The LLOMe is taken up into the cells by endocytosis and cleaved by CTSC. A product thereof induces lysosomal damage in cells and causes cell death in leukocytes and the like. Therefore, since the degree of cell death correlates with an amount of degradation of LLOMe, that is, with CTSC activity, by quantitatively analyzing the cell death, CTSC inhibitory activity of the test specimen in the cell was determined. CTSC inhibition assay was performed using a polystyrene-made white 384 well plate.
As the test specimen, a stock solution dissolved in DMSO was prepared so as to be 0.2 mmol/L, and in a case where a solution in which the stock solution was diluted 50-fold with a RPMI-1640 medium including 10% FBS was used as the maximum evaluation concentration (4000 nmol/L), a serially diluted solution was prepared by diluting the solution 3-fold with the medium. Thereafter, a 4-fold concentrated test specimen solution with the target final concentration was prepared.
U937 cells were cultured in a RPMI-1640 medium including 10% FBS, and diluted to prepare 90,000 cells/mL of cell suspension on the day of assay. 10 μL of the cell suspension was seeded per well. Next, 10 μL of the test specimen solution having a concentration 4 times the target final concentration was added thereto, and the mixture was allowed to stand for 30 minutes. Thereafter, 20 μL of a 300 μmol/L LLOMe solution dissolved in a RPMI-1640 medium including 10% FBS was added thereto, and the cells were cultured for 3 hours. After completion of the culture, 40 μL of CellTiter-Glo (registered trademark) reagent (Promega, G7570) was added to each well and mixed. After 15 minutes, 20 μL of the reaction solution in each well was transferred to a white 384 well plate, and a chemiluminescence intensity was measured with a plate reader. A 4-parameter regression analysis was performed with GraphPad Prism (manufactured by GraphPad Software) from a plot of the luminescence intensity and the sample concentration, and an IC50 value was calculated.
Results of test compounds of Formula (1) are shown in Table 2 as IC50 (nM) values for which 50% inhibition concentration is calculated based on CTSC inhibition (%). In the table, Ex indicates an example number.

Chain of CTSC in U937 cells (P53634 25-463): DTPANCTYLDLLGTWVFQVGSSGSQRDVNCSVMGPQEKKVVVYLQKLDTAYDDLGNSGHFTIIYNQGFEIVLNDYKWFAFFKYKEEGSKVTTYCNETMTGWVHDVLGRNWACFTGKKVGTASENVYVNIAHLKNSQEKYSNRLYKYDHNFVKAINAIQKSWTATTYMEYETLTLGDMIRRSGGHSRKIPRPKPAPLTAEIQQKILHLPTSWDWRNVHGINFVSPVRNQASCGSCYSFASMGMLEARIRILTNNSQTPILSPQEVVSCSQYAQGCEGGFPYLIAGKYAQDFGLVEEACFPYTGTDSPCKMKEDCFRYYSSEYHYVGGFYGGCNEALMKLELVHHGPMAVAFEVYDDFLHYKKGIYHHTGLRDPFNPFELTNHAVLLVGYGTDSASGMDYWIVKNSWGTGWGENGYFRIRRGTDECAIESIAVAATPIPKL
Chain of human recombinant CTSC (P53634 25-134): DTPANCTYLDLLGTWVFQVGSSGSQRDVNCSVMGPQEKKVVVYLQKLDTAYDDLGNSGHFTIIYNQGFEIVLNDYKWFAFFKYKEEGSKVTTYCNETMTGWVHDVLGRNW
Chain of human recombinant CTSC (P53634 231-394): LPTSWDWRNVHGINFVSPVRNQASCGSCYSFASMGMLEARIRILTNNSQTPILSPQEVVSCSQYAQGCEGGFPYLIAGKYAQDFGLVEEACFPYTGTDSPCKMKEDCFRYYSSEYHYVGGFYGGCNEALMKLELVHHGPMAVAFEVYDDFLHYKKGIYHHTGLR
Chain of human recombinant CTSC (P53634 395-463): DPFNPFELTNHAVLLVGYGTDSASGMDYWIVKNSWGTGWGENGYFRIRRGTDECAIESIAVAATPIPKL

IC50 (human recombinant CTSC)	Structure (SMILES)	IC50 (CTSC in U937 cells)
25.5 nM	O=C([C@@H]1C[C@@H](O)C2(CCC2)CN1)N1CCC(C(=O)N2CCOC3(CC3)C2)(C(F)(F)F)CC1 [Example 32]	8.84 nM
2.62 nM	CC(NC(=O)C1(C(F)(F)F)CCN(C(=O)[C@@H]2CC[C@@]3(CCO3)CN2)CC1)C1CCC(F)(F)CC1 (some centres unmarked) [Example 33]	7.5 nM
> 1000 nM	CC(C)C1(c2noc(C3CCC(F)(F)CC3)n2)CCN(C(=O)[C@@H]2C[C@@H](O)CCN2)CC1 [Example 34]	> 333 nM
3.39 nM	O=C([C@@H]1C[C@@H](O)C2(CCC2)CN1)N1CCC(C(=O)N2CCC(C(F)(F)F)C2)(C(F)(F)F)CC1 (some centres unmarked) [Example 35]	6.54 nM
1.88 nM	CC(C)C1(c2noc(C3CCC(F)(F)CC3)n2)CCN(C(=O)[C@@H]2C[C@@H](O)C(C)(C)CN2)CC1 [Example 36]	0.71 nM
28.4 nM	O=C([C@@H]1C[C@@H](O)C2(CCC2)CN1)N1CCC(C(=O)N2CCO[C@@H](C(F)(F)F)C2)(C(F)(F)F)CC1 [Example 37]	10.1 nM
> 200 nM	CC(C)C1(c2noc(C3CCC(F)(F)CC3)n2)CCN(C(=O)[C@H]2N[C@H]3CC[C@@H]2[C@H](O)C3)CC1 [Example 38]	124 nM
13.3 nM	O=C([C@@H]1C[C@@H](O)C2(CCC2)CN1)N1CCC(C(=O)N2CCO[C@H](C(F)(F)F)C2)(C(F)(F)F)CC1 [Example 39]	7.18 nM
19.6 nM	O=C([C@@H]1CC[C@@]2(CCO2)CN1)N1CCC(c2noc(C3CC(F)(F)C3)n2)(C(F)(F)F)CC1 [Example 40]	37.9 nM
18.5 nM	CC(C)C1(c2noc(C3CCC(F)(F)CC3)n2)CCN(C(=O)C2CCC(C)(C)CN2)CC1 (centres unmarked) [Example 41]	6.95 nM
7.19 nM	CC(C)C1(c2noc(C3CCC(F)(F)CC3)n2)CCN(C(=O)C2CCC3(CCC3)CN2)CC1 (centres unmarked) [Example 42]	2.28 nM
> 100 nM	CC1CC[C@@H](C(=O)N2CCC(c3noc(C4CCC(F)(F)CC4)n3)(C(C)C)CC2)NC1 (some centres unmarked) [Example 43]	57.3 nM
2.74 nM	O=C([C@@H]1C[C@@H](O)C2(CCC2)CN1)N1CCC(c2ccc(F)cn2)(c2noc(C3CC(F)(F)C3)n2)CC1 [Example 44]	4.24 nM
1.88 nM	CC1(c2nc(C3(C(F)(F)F)CCN(C(=O)[C@@H]4C[C@@H](O)C5(CCC5)CN4)CC3)no2)CC(F)(F)C1 [Example 45]	0.17 nM
53.5 nM	CC(C)C1(c2noc(C3CCC(F)(F)CC3)n2)CCN(C(=O)[C@@H]2CCC3(CC3)CN2)CC1 [Example 46]	42.5 nM
3.07 nM	O=C(c1nc(C2(C(F)(F)F)CCN(C(=O)[C@@H]3C[C@@H](O)C4(CCC4)CN3)CC2)no1)N1CCC(F)(F)CC1 [Example 48]	4 nM

IC50 (human recombinant CTSC)	Structure (SMILES)	IC50 (CTSC in U937 cells)
4.43 nM	C[C@]1(F)C[C@H](c2nc(C3(C(F)(F)F)CCN(C(=O)[C@@H]4C[C@@H](O)C5(CCC5)CN4)CC3)no2)C1 [Example 49]	0.35 nM
1.53 nM	O=C([C@@H]1C[C@@H](O)C2(CCC2)CN1)N1CCC(c2noc(C3CCC(F)(F)CO3)n2)(C(F)(F)F)CC1 (stereo partly drawn) [Example 50, (4-(5-(5,5-difluorotetrahydro-2H-pyran-2-yl)-1,2,4-oxadiazol-3-yl)-4-(trifluoromethyl)piperidin-1-yl)((7S,9R)-9-hydroxy-6-azaspiro[3.5]nonan-7-yl)methanone]	0.8 nM
8.28 nM	CC1(C)CN[C@H](C(=O)N2CCC(c3noc(C4CC(F)(F)C4)n3)(C(F)(F)F)CC2)C[C@H]1O [Example 51, (4-(5-(3,3-Difluorocyclobutyl)-1,2,4-oxadiazol-3-yl)-4-(trifluoromethyl)piperidin-1-yl)((2S,4R)-4-hydroxy-5,5-dimethylpiperidin-2-yl)methanone]	0.86 nM
8.16 nM	O=C([C@@H]1C[C@@H](O)C2(CCC2)CN1)N1CCC(C(=O)N2CC[C@@H](C(F)(F)F)C2)(C(F)(F)F)CC1 [Example 52]	10.2 nM
18.7 nM	CC1(C)CN(C(=O)c2nc(C3(C(F)(F)F)CCN(C(=O)[C@@H]4C[C@@H](O)C5(CCC5)CN4)CC3)no2)C1 [Example 53]	11.3 nM
3.88 nM	CC(C)C1(c2nc(C3CC(F)(F)C3)no2)CCN(C(=O)[C@@H]2C[C@@H](O)C(C)(C)CN2)CC1 [Example 54]	1.46 nM
4.4 nM	O=C([C@@H]1C[C@@H](O)C2(CCC2)CN1)N1CCC(C(=O)N2CC[C@H](C(F)(F)F)C2)(C(F)(F)F)CC1 [Example 55]	3.79 nM
2.06 nM	CC1(C)CN[C@H](C(=O)N2CCC(c3noc(C4CCC(F)(F)CC4)n3)(C(F)(F)F)CC2)C[C@H]1O [Example 56, (4-(5-(4,4-Difluorocyclohexyl)-1,2,4-oxadiazol-3-yl)-4-(trifluoromethyl)piperidin-1-yl)((2S,4R)-4-hydroxy-5,5-dimethylpiperidin-2-yl)methanone]	0.71 nM
3.57 nM	CC1(C)CN[C@H](C(=O)N2CCC(c3nc(C4CCC(F)(F)CC4)no3)(C(F)(F)F)CC2)C[C@H]1O [Example 57]	0.55 nM
2.55 nM	CC(C)C1(c2noc(C3CCC3)n2)CCN(C(=O)[C@@H]2C[C@@H](O)C3(CCC3)CN2)CC1 [Example 58]	0.56 nM
3.61 nM	O=C([C@@H]1C[C@@H](O)C2(CCC2)CN1)N1CCC(c2noc(C3CCCCO3)n2)(C(F)(F)F)CC1 (some centres unmarked) [Example 59]	0.7 nM
4.09 nM	O=C([C@@H]1C[C@@H](O)C2(CCC2)CN1)N1CCC(c2noc(C3CCCOC3)n2)(C(F)(F)F)CC1 (some centres unmarked) [Example 60]	1.39 nM
5.72 nM	O=C([C@@H]1C[C@@H](O)C2(CCC2)CN1)N1CCC(c2noc(C3CCOCC3)n2)(C(F)(F)F)CC1 [Example 61]	1.75 nM
6.39 nM	O=C([C@@H]1C[C@@H](O)C2(CCC2)CN1)N1CCC(c2noc(C3CCCO3)n2)(C(F)(F)F)CC1 (some centres unmarked) [Example 62]	1.62 nM
1.85 nM	O=C([C@@H]1C[C@@H](O)C2(CCC2)CN1)N1CCC(c2noc(C3CCC(F)(F)CO3)n2)(C(F)(F)F)CC1 (stereo partly drawn) [Example 63, (4-(5-(5,5-Difluorotetrahydro-2H-pyran-2-yl)-1,2,4-oxadiazol-3-yl)-4-(trifluoromethyl)piperidin-1-yl)((7S,9R)-9-hydroxy-6-azaspiro[3.5]nonan-7-yl)methanone]	1.01 nM
